Drawing on ChEMBL document CHEMBL1125857, “Synthesis of substrate-based inhibitors of HMG CoA reductase (II)” (Bioorg Med Chem Lett, 1991), this text covers IC50 for 3 compounds.

SMILES strings stand for the structures.

This assay has as its target T1, 3-hydroxy-3-methylglutaryl-coenzyme A reductase (Rattus norvegicus, UniProt P51639).
T1 sequence (P51639 whole entry): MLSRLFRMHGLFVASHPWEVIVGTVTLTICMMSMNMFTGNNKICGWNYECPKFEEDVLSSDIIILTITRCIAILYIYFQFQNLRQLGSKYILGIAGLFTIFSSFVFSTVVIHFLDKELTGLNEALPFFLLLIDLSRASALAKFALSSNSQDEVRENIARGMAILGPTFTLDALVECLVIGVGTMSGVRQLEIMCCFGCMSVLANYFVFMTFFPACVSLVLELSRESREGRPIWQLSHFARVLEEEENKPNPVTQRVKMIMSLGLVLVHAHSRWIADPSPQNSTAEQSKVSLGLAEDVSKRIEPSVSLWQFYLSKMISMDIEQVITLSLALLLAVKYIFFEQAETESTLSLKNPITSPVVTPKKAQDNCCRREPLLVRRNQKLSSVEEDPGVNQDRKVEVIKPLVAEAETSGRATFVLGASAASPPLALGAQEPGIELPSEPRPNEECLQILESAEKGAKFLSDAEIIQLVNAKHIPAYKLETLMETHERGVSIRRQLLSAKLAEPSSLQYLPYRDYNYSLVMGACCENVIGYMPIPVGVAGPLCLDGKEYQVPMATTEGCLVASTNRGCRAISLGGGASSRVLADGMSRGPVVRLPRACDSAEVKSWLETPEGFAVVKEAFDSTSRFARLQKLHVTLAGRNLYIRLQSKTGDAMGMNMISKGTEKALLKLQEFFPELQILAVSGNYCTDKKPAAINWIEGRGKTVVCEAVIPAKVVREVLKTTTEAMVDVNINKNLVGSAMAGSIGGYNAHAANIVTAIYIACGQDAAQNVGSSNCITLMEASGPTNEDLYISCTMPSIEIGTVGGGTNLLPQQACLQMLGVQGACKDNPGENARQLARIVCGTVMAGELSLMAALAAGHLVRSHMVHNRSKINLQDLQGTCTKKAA
Kind of assay: Compound was tested for inhibitory activity against rat hepatic microsomal HMG-CoA reductase; lacked significant inhibitory activity. The conditions noted are these: read-out: I50.
`CC(C)[C@@H](O)C(=O)NCCC(=O)NCCNC(=O)C[C@@](C)(O)CC(=O)O`: the IC50 is above 1000 µM.

For the compound `CC(C)[C@@H](O)C(=O)NCCC(=O)NCCNC(=O)C[C@@H](O)CC(=O)O`, the IC50 was above 1000 µM.

For `CC(C)[C@@H](O)C(=O)NCCC(=O)NCCNCC(O)CC(O)CC(=O)O` (stereo partly drawn), the IC50 was above 1000 µM.
